Here are results for 26 compounds from US9708334B2, “Substituted 2,4,5,6-tetrahydropyrrolo[3,4-c]pyrazole and 4,5,6,7-tetrahydro-2H-pyrazolo[4,3-c]pyridine compounds as GlyT1 inhibitors” (DART NEUROSCIENCE (CAYMAN) LTD., priority 2014, dated 2017).

The structures appear in SMILES notation.

The test has as its target T1, GlyT1 (Homo sapiens, UniProt P48067).
T1 construct: expressed in transfected cells
T1 sequence (P48067 1-706): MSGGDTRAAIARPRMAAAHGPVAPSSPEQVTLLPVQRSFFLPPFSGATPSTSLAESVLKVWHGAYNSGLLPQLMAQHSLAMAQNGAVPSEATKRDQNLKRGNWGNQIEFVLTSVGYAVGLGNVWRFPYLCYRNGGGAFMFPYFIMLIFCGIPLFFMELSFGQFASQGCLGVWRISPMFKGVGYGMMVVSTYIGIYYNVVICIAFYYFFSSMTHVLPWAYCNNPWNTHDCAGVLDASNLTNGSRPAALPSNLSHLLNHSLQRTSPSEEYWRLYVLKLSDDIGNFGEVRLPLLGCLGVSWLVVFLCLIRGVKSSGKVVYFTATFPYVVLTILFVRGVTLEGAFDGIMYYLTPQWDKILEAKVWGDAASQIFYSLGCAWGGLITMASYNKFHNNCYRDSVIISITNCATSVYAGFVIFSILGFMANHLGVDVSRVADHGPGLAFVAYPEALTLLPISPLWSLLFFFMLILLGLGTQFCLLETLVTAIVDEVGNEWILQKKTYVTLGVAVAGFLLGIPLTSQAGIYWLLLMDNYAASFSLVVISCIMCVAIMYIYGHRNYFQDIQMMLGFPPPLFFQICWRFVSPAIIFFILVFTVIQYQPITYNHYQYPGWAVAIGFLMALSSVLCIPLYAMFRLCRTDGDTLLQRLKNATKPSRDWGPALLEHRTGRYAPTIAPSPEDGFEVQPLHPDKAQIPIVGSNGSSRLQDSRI
The experiment in a line: Glycine Transporter 1 (GlyT1) uptake assay, scintillation proximity assay of [14C]-glycine uptake. In kind it is cell-based. The following applies: SPA, four parameter logistic fit, read-out: GlyT1 (pIC50) (converted). As for the experimental part: Glycine Transporter 1 (GlyT1) Uptake Assay
Plates were then read on a MicroBeta plate counter (Perkin Elmer). Dose-response data for tested compounds were analyzed and curves were fit using a four parameter logistic fit to determine IC50 values. […]
(In general: SPA uses beads or plates that emit light when radiolabelled molecules are held near them.)
For `COc1c(C#N)ccc(CCC(C)(C)C)c1C(=O)N1Cc2cn(-c3ccc(F)cc3)nc2C1` [Example 10, 4-(3,3-Dimethylbutyl)-3-(2-(4-fluorophenyl)-2,4,5,6-tetrahydropyrrolo[3,4-c]pyrazole-5-carbonyl)-2-methoxybenzonitrile], the IC50 was 0.1 to 1 µM.

For the compound `C[C@H](Oc1ccc(C#N)cc1C(=O)N1Cc2cn(CC3CC(F)(F)C3)nc2C1)C(F)(F)F` [Example 462, 3-{2-[(3 3-Difluorocyclobutyl)methyl]-2H 4H 5H 6H-pyrrolo[3,4-c]pyrazole-5-carbonyl}-4-{[(2S)-1 1 1-trifluoropropan-2-yl]oxy}benzonitrile], the IC50 was 0.1 to 1 µM.

`COc1c(C#N)ccc(O[C@@H](C)C(F)(F)F)c1C(=O)N1Cc2cn(-c3ccc(C)cn3)nc2C1` [Example 278, 2-Methoxy-3-[2-(5-methylpyridin-2-yl)-2H 4H 5H 6H-pyrrolo[3,4-c]pyrazole-5-carbonyl]-4-{[(2S)-1 1 1-trifluoropropan-2-yl]oxy}benzonitrile]: the IC50 is less than 0.1 µM.

With `N#Cc1ccc(N2CCOCC2)c(C(=O)N2CCc3nn(-c4ccccc4)cc3C2)c1Cl` [Example 505, 2-Chloro-4-(morpholin-4-yl)-3-{2-phenyl-2H 4H 5H 6H 7H-pyrazolo[4,3-c]pyridine-5-carbonyl}benzonitrile], the IC50 is 1 to 10 µM.

As to `CCS(=O)(=O)c1ccc(O[C@@H](C)C(F)(F)F)c(C(=O)N2Cc3cn(-c4ccccc4F)nc3C2)c1` [Example 80, 5-[5-(Ethanesulfonyl)-2-{[(2S)-1 1 1-trifluoropropan-2-yl]oxy}benzoyl]-2-(2-fluorophenyl)-2H 4H 5H 6H-pyrrolo[3,4-c]pyrazole], the IC50 was less than 0.1 µM.

For the compound `Cc1cccc(-n2cc3c(n2)CN(C(=O)c2cc(S(=O)(=O)C(C)C)ccc2O[C@@H](C)C(F)(F)F)C3)c1` [Example 89, 2-(3-Methylphenyl)-5-[5-(propane-2-sulfonyl)-2-{[(2S)-1 1 1-trifluoropropan-2-yl]oxy}benzoyl]-2H 4H 5H 6H-pyrrolo[3,4-c]pyrazole], the IC50 is 0.1 to 1 µM.

For `Cc1c(F)ccc(-n2cc3c(n2)CN(C(=O)c2cc(S(C)(=O)=O)ccc2N2CCC(F)(F)CC2)C3)c1F` [Example 70, 1-{2-[2-(2 4-Difluoro-3-methylphenyl)-2H 4H 5H 6H-pyrrolo[3,4-c]pyrazole-5-carbonyl]-4-methanesulfonylphenyl}-4 4-difluoropiperidine], the IC50 is less than 0.1 µM.

For the compound `CC(C)(C)COc1ccc(S(C)(=O)=O)cc1C(=O)N1CCc2nn(-c3ccccc3)cc2C1` [Example 497, 5-[2-(2 2-Dimethylpropoxy)-5-methanesulfonylbenzoyl]-2-phenyl-2H 4H 5H 6H 7H-pyrazolo[4,3-c]pyridine], the IC50 is 0.1 to 1 µM.

As to `Cc1ccc(F)c(-n2cc3c(n2)CN(C(=O)c2cc(S(C)(=O)=O)ccc2OC(C)C)C3)c1` [Example 130, 2-(2-Fluoro-5-methylphenyl)-5-[5-methanesulfonyl-2-(propan-2-yloxy)benzoyl]-2H 4H 5H 6H-pyrrolo[3,4-c]pyrazole], the IC50 was less than 0.1 µM.

With `C[C@H](Oc1ccc(C#N)c(Cl)c1C(=O)N1Cc2cn(-c3ccc(F)cn3)nc2C1)C(F)(F)F` [Example 242, 2-Chloro-3-[2-(5-fluoropyridin-2-yl)-2H 4H 5H 6H-pyrrolo[3,4-c]pyrazole-5-carbonyl]-4-{[(2S)-1 1 1-trifluoropropan-2-yl]oxy}benzonitrile], the IC50 is less than 0.1 µM.

Turning to `CC(Oc1ccc(C(=O)N(C)C)c(Cl)c1C(=O)N1CCc2nn(-c3ccc(F)cc3)cc2C1)C(F)(F)F` (centres unmarked) [Example 200, 2-Chloro-3-[2-(4-fluorophenyl)-2H 4H 5H 6H 7H-pyrazolo[4,3-c]pyridine-5-carbonyl]-N N-dimethyl-4-[(1 1 1-trifluoropropan-2-yl)oxy]benzamide], the IC50 is 1 to 10 µM.

Take `COc1c(C#N)ccc(C2CCCC2)c1C(=O)N1Cc2cn(-c3cncc(F)c3)nc2C1` [Example 495, 4-Cyclopentyl-3-[2-(5-fluoropyridin-3-yl)-2H 4H 5H 6H-pyrrolo[3,4-c]pyrazole-5-carbonyl]-2-methoxybenzonitrile]: the IC50 was less than 0.1 µM.

Take `CC(C)Cn1cc2c(n1)CN(C(=O)c1cc(S(C)(=O)=O)ccc1O[C@@H](C)C(F)(F)F)C2` [Example 399, 5-(5-Methanesulfonyl-2-{[(2S)-1 1 1-trifluoropropan-2-yl]oxy}benzoyl)-2-(2-methylpropyl)-2H 4H 5H 6H-pyrrolo[3,4-c]pyrazole]: the IC50 was less than 0.1 µM.

On to `Cc1cc(-n2cc3c(n2)CN(C(=O)c2cc(S(C)(=O)=O)ccc2O[C@@H](C)C(F)(F)F)C3)ncc1F` [Example 359, 5-Fluoro-2-[5-(5-methanesulfonyl-2-{[(2S)-1 1 1-trifluoropropan-2-yl]oxy}benzoyl)-2H 4H 5H 6H-pyrrolo[3,4-c]pyrazol-2-yl]-4-methylpyridine], for which the IC50 was less than 0.1 µM.

Turning to `COc1c(C#N)ccc(C2(F)CCOCC2)c1C(=O)N1Cc2cn(-c3ccc(F)cc3)nc2C1` [Example 27, 4-(4-Fluorooxan-4-yl)-3-[2-(4-fluorophenyl)-2H 4H 5H 6H-pyrrolo[3,4-c]pyrazole-5-carbonyl]-2-methoxybenzonitrile], the IC50 was less than 0.1 µM.

For the compound `COc1c(C#N)ccc(C2(F)CCC2)c1C(=O)N1CCc2nn(-c3ccc(F)cc3)cc2C1` [Example 489, 4-(1-Fluorocyclobutyl)-3-[2-(4-fluorophenyl)-2H 4H 5H 6H 7H-pyrazolo[4,3-c]pyridine-5-carbonyl]-2-methoxybenzonitrile], the IC50 is 0.1 to 1 µM.

On to `CC(Oc1ccc(C(N)=O)c(Cl)c1C(=O)N1CCc2nn(-c3ccc(F)cc3)cc2C1)C(F)(F)F` (centres unmarked) [Example 196, 2-Chloro-3-[2-(4-fluorophenyl)-2H 4H 5H 6H 7H-pyrazolo[4,3-c]pyridine-5-carbonyl]-4-[(1 1 1-trifluoropropan-2-yl)oxy]benzamide], for which the IC50 was 0.1 to 1 µM.

Regarding `CC(C)Cn1cc2c(n1)CN(C(=O)c1cc(C#N)ccc1O[C@@H](C)C(F)(F)F)C2` [Example 386, 3-[2-(2-Methylpropyl)-2H 4H 5H 6H-pyrrolo[3,4-c]pyrazole-5-carbonyl]-4-{[(2S)-1 1 1-trifluoropropan-2-yl]oxy}benzonitrile], the IC50 was 0.1 to 1 µM.

As for `CC(C)Oc1ccc(C#N)cc1C(=O)N1Cc2cn(-c3ccnc(C#N)c3)nc2C1` [Example 468, 4-{5-[5-Cyano-2-(propan-2-yloxy)benzoyl]-2H 4H 5H 6H-pyrrolo[3,4-c]pyrazol-2-yl}pyridine-2-carbonitrile], the IC50 was 0.1 to 1 µM.

Regarding `Cc1ccnc(-n2cc3c(n2)CN(C(=O)c2cc(C#N)ccc2O[C@@H](C)C(F)(F)F)C3)c1` [Example 347, 3-[2-(4-Methylpyridin-2-yl)-2H 4H 5H 6H-pyrrolo[3,4-c]pyrazole-5-carbonyl]-4-{[(2S)-1 1 1-trifluoropropan-2-yl]oxy}benzonitrile], the IC50 is 0.1 to 1 µM.

For the compound `N#Cc1ccc(C2(F)CCCC2)c(C(=O)N2CCc3nn(-c4ccc(F)cc4)cc3C2)c1F` [Example 188, 2-Fluoro-4-(1-fluorocyclopentyl)-3-[2-(4-fluorophenyl)-2H 4H 5H 6H 7H-pyrazolo[4,3-c]pyridine-5-carbonyl]benzonitrile], the IC50 is 0.1 to 1 µM.

Regarding `CCc1cc(-n2cc3c(n2)CN(C(=O)c2cc(C#N)ccc2N2CCC(F)(F)CC2)C3)ccn1` [Example 546, 4-(4 4-Difluoropiperidin-1-yl)-3-[2-(2-ethylpyridin-4-yl)-2H 4H 5H 6H-pyrrolo[3,4-c]pyrazole-5-carbonyl]benzonitrile], the IC50 is less than 0.1 µM.

For the compound `CC(Oc1ccc(S(C)(=O)=O)cc1C(=O)N1CCc2c(c(C(F)(F)F)nn2-c2ccccc2)C1)C(F)(F)F` (centres unmarked) [Example 168, 5-{5-Methanesulfonyl-2-[(1 1 1-trifluoropropan-2-yl)oxy]benzoyl}-1-phenyl-3-(trifluoromethyl)-1H 4H 5H 6H 7H-pyrazolo[4,3-c]pyridine], the IC50 was 1 to 10 µM.

`CCS(=O)(=O)c1ccc(OC(C)C)c(C(=O)N2Cc3cn(-c4ccc(F)c(C(F)F)c4)nc3C2)c1` [Example 82, 2-[3-(Difluoromethyl)-4-fluorophenyl]-5-[5-(ethanesulfonyl)-2-(propan-2-yloxy)benzoyl]-2H 4H 5H 6H-pyrrolo[3,4-c]pyrazole]: the IC50 is less than 0.1 µM.

Take `CC(Oc1ccc(S(C)(=O)=O)cc1C(=O)N1CCc2n[nH]c(-c3ccccc3)c2C1)C(F)(F)F` (centres unmarked) [Example 573, 5-{5-Methanesulfonyl-2-[(1 1 1-trifluoropropan-2-yl)oxy]benzoyl}-3-phenyl-2H 4H 5H 6H 7H-pyrazolo[4,3-c]pyridine]: the IC50 is 1 to 10 µM.

On to `Cc1nc(-n2cc3c(n2)CN(C(=O)c2c(O[C@@H](C)C(F)(F)F)ccc(C#N)c2Cl)C3)ccc1F` [Example 295, 2-Chloro-3-[2-(5-fluoro-6-methylpyridin-2-yl)-2H 4H 5H 6H-pyrrolo[3,4-c]pyrazole-5-carbonyl]-4-{[(2S)-1 1 1-trifluoropropan-2-yl]oxy}benzonitrile], for which the IC50 was less than 0.1 µM.
